Experimental data reported in US4889953A, “Glycerol derivatives, their production and use” (Takeda Chemical Industries, Ltd., priority 1986, dated 1989).
Where two headings read alike, the source gives them in different places.

Columns and labels:
Sarcoma 180 cells [1] = assay: Antitumor action, Sarcoma 180 intraperitoneal in ICR mice, life-span and survivors on 40th day (Test Example 1); assay type: in vivo; details: 0.33 mg/mouse i.p. three times; for Life-span prolongation ratio (T/C, %): only related to mice found dead
Protocol: Antitumor action of the compounds in Working Examples
(§1) ICR mice (a group consisting of five mice) were inoculated intraperitoneally with 1×10^5 Sarcoma 180 cells per mouse, and then given intraperitoneally 0.33 mg/mouse of a compound dissolved in physiological saline, three times, i.e. 1 hour, 1 day and 2 days after inoculation. Reference compound IV, Va or Vb was given to mice under the same conditions. Shown in Table 1 are the life-span prolongation ratio against the untreated control group and the number of survived mice on the 40th day after the initiation of the test.

[2] = test system: Platelet aggregation caused by PAF; assay: Inhibition of PAF-induced platelet aggregation in rabbit PRP (Test Example 5); assay type: cell-based; details: Oryctolagus cuniculus, PAF 1×10^-8 M, read-out: inhibition ratio (%) of PAF-induced platelet aggregation; for inhibition at 30 µM: 3 × 10^-5 M; for inhibition at 3 µM: 3 × 10^-6 M; for inhibition at 0.3 µM: 3 × 10^-7 M
Protocol: Blood was collected directly from a male rabbit, using a syringe containing 3.15% of citric acid (at a ratio of 1 part to 9 parts of blood) as an anticoagulant, and centrifuged at 800 rpm for 10 minutes at room temperature to obtain platelet rich plasma (PRP). The remaining blood was centrifuged further at 3000 rpm for 10 minutes to obtain platelet poor plasma (PPP) as the supernatant. By dilution of PRP with PPP, the platelet count was adjusted to about 500,000 cells/μl. After 250 μl of the resulting PRP was stirred at 37° C. for 2 minutes, a certain amount of the test compound was added, and the mixture was stirred for further 2 minutes, and then 1×10^-8 M of PAF was added. Platelet aggregation was measured by using a platelet aggregometer (manufactured by Rika Denki Co. in Japan). The aggregation-inhibiting activity of a test compound was determined from the inhibition ratio against maximal transmittance (maximal aggregation ratio) caused by PAF in the control PRP.

Sarcoma 180 cells [3] = assay: Antitumor action, Sarcoma 180 subcutaneous in ICR mice, intravenous dosing, tumor proliferation inhibition (Test Example 2); assay type: in vivo; details: tumor weight after 21 days
Protocol: (§2) Antitumor action of the compound of Working Example 8
ICR mice (a group consisting of 5 mice) were inoculated subcutaneously with 1×10^6 Sarcoma 180 cells per mouse, and given intravenously 0.03 mg/mouse or 0.3 mg/mouse of the compound of Working Example 8 dissolved in physiological saline 9 times in total, i.e. 8, 9, 10, 13, 14, 15, 16, 17, and 20 days after inoculation. The Reference compound (IV), 0.3 mg/mouse, was given under the same conditions. After 21 days, the tumor tissue was extirpated and the tumor weight was weighed. Shown in Table 2 is tumor proliferation inhibition ratio as compared with the untreated control group.

[4] = test system: mouse mammary carcinoma cells MM46; assay: Antitumor action, MM46 intraperitoneal in C3H mice, life-span and survivors on 60th day (Test Example 8); assay type: in vivo; details: for Life-span prolongation ratio (T/C, %): mice found dead only
Excerpt: (§3) Antitumor action of the compounds of Working Examples
C3H mice (a group consisting of 5 mice) were inoculated intraperitoneally with 1×10^4 mouse mammary carcinoma cells MM46 per mouse, […] saline once a day for 4 consecutive days starting from the second day after inoculation. Shown in Table 8 are the life-span prolongation ratio against the untreated control group and the number of survived mice on the 60th day after initiation of the test.

Sarcoma 180 cells [5] = assay: Antitumor action, Sarcoma 180 subcutaneous in ICR mice, oral dosing (Test Example 9); assay type: in vivo; details: 0.3 mg/mouse orally eight times, after 20 days; for Inhibition ratio (%): against untreated control
Protocol: Antitumor action of the compounds of Working Examples 8 and 24
ICR mice (a group consisting of 5 mice) were inoculated subcutaneously at the dorsolateral area with […] 1×10^6 Sarcoma 180 cells per mouse, and given orally 0.3 mg/mouse of the compound of Example 8 or the compound of Example 24 eight times in total, i.e. 8th, 9th, 10th, 13th, 14th, 15th, 16th, and 17th day after inoculation. After 20 days the tumor tissue was extirpated and the tumor weight was weighed. Shown in Table 9 is tumor proliferation inhibition ratio against the untreated control.

[6] = test system: mouse mammary carcinoma cells MM46; assay: Antitumor action, MM46 intraperitoneal in C3H mice, life-span and survivors on 40th day (Test Example 3); assay type: in vivo; details: 0.25 mg/mouse once a day for 4 days
Protocol: as §2
C3H mice (a group consisting of 5 mice) were inoculated intraperitoneally with 1×10^4 mouse mammary carcinoma cells MM46 per mouse, and given 0.25 mg/mouse of the compound of Working Example 8 dissolved in physiological saline once a day for 4 consecutive days starting from the second day after the inoculation. The Reference compound (IV) was given under the same conditions. Shown in Table 3 are the life-span prolongation ratio against the untreated control group and the number of survived mice on the 40th day after initiation of the test.

Sarcoma 180 cells [7] = assay: Antitumor action, Sarcoma 180 intraperitoneal in ICR mice, life-span and survivors on 60th day (Test Example 6); assay type: in vivo; details: Sarcoma-180, ip, 1440 h; for response vs control in vivo at 0.33 mg: read-out: Life-span prolongation ratio (T/C)
Protocol: as §3
as §1, with “inoculation.” for “inoculation. Reference compound IV, Va or Vb was given to mice under the same conditions.”, “Table 6” for “Table 1”, “the 60th” for “the 40th”

Sarcoma 180 cells [8] = assay: Antitumor action, Sarcoma 180 subcutaneous in ICR mice, intravenous dosing, tumor proliferation inhibition (Test Example 7); assay type: in vivo; details: 0.3 mg/mouse i.v. 9 times; tumor weight after 21 days
Protocol: as §3
ICR mice (a group consisting of 5 mice) were inoculated subcutaneously with 1×10^5 Sarcoma 180 cells per mouse, and given intravenously 0.3 mg/mouse of a compound of a Working Example dissolved in physiological saline 9 times in total, i.e. 8, 9, 10, 13, 14, 15, 16, 17, and 20 days after inoculation. After 21 days, the tumor tissue was extirpated and the tumor weight was weighed. Shown in Table 7 is tumor proliferation inhibition ratio as compared with the untreated control group.

macrophages = details: even at about 1000 times concentration of that of PAF; cited from earlier work
[9] = 0.125 mg/mouse once a day for 4 days
[10] = 0.25 mg/mouse once a day for 4 days
[11] = 0.33 mg/mouse i.p. three times, 60th day, read-out: No. of survivors/No. of mice tested (converted)
[12] = 0.33 mg/mouse i.p. three times, survivors on day 60 not included

## CCCCCCCCCCCCCCCCCCOCC(COCC[N+](C)(C)C)OC (stereo not shown) [Compound Va, reference compound]
Sarcoma 180 cells [1]
  No. of survivors/No. of mice tested: 1/5
  Life-span prolongation ratio (T/C, %): 241%
[2]
  inhibition at 30 µM: 27%
  inhibition at 3 µM: 0%
  inhibition at 0.3 µM: 0%

## CCCCCCCCCCCCCCCCCCOCC(COCCCC[N+](C)(C)C)OC (stereo not shown) [Compound Vb, reference compound]
Sarcoma 180 cells [1]
  No. of survivors/No. of mice tested: 0/5
  Life-span prolongation ratio (T/C, %): 291%
[2]
  inhibition at 30 µM: 97%
  inhibition at 3 µM: 5%
  inhibition at 0.3 µM: 0%

## CCCCCCCCCCCCCCCCCCOCC(COCCOCC[N+](C)(C)C)OC (stereo not shown) [Example 8, 2-[2-[2-Methoxy-3-(octadecyloxy)propyloxy]ethoxy]ethyltrimethylammonium chloride]
Sarcoma 180 cells [1]
  No. of survivors/No. of mice tested: 5/5
[2]
  inhibition at 30 µM: 100%
  inhibition at 3 µM: 38%
  inhibition at 0.3 µM: 18%
Sarcoma 180 cells [3]; 0.03 mg/mouse i.v. 9 times
  Inhibition ratio (1-T/C) (%): 65%
Sarcoma 180 cells [3]; 0.3 mg/mouse i.v. 9 times
  Inhibition ratio (1-T/C) (%): 65%
[4]; [9]
  No. of survivors/No. of mice tested: 2/5
  Life-span prolongation ratio (T/C, %): 144%
[4]; [10]
  No. of survivors/No. of mice tested: 3/5
  Life-span prolongation ratio (T/C, %): 315%
Sarcoma 180 cells [5]
  Weight of tumor: 0.35 ± 0.04 g
  Inhibition ratio (%): 75%
[6]
  No. of survivors/No. of mice tested: 5/5

## CCCCCCCCCCCCCCCCCCOCC(COCCOCCOCC[N+](C)(C)C)OC (stereo not shown) [Example 9, 2-[2-[2-[2-Methoxy-3-(octadecyloxy)propyloxy]ethoxy]ethoxy]ethyltrimethylammonium chloride]
Sarcoma 180 cells [1]
  No. of survivors/No. of mice tested: 1/5
  Life-span prolongation ratio (T/C, %): 247%
[2]
  inhibition at 30 µM: 100%
  inhibition at 3 µM: 66%
  inhibition at 0.3 µM: 3%

## CCCCCCCCCCCCCCCCCCOCC(COCCOCC[N+](C)(C)C)OC(=O)CC(C)=O.[Cl-] (stereo not shown) [Example 12, 2-[2-[2-(Acetoacetyloxy)-3-(octadecyloxy)propyloxy]ethoxy]ethyltrimethylammonium chloride]
Sarcoma 180 cells [7]; [11]
  responders at 0.33 mg: 40%
Sarcoma 180 cells [7]; [12]
  response vs control in vivo at 0.33 mg: 292%
[4]; [10]
  No. of survivors/No. of mice tested: 3/5
  Life-span prolongation ratio (T/C, %): 126%
[4]; 0.5 mg/mouse once a day for 4 days
  No. of survivors/No. of mice tested: 5/5

## CCCCCCCCCCCCCCCCCCOCC(COCCOCCOCC[N+](C)(C)C)OC(=O)CC(C)=O (stereo not shown) [Example 15, 2-[2-[2-[2-(Acetoacetyloxy)-3-(octadecyloxy)propyloxy]ethoxy]ethoxy]ethyltrimethylammonium chloride]
Sarcoma 180 cells [1]
  No. of survivors/No. of mice tested: 4/5
  Life-span prolongation ratio (T/C, %): 291%
[2]
  inhibition at 30 µM: 100%
  inhibition at 3 µM: 43%

## COC(COCCCCCCCCCCCCC1CCCCC1)COCCOCC[N+](C)(C)C (stereo not shown) [Example 24, 2-[2-[3-(12-Cyclohexyl)dodecyloxy-2-methoxypropyloxy]ethoxy]ethyltrimethylammonium chloride]
Sarcoma 180 cells [1]
  No. of survivors/No. of mice tested: 3/5
  Life-span prolongation ratio (T/C, %): 262%
Sarcoma 180 cells [8]
  Inhibition ratio (1-T/C) (%): 78%
[2]
  inhibition at 30 µM: 100%
  inhibition at 3 µM: 63%
Sarcoma 180 cells [7]; [11]
  responders at 0.33 mg: 0%
Sarcoma 180 cells [7]; [12]
  response vs control in vivo at 0.33 mg: 302%
Sarcoma 180 cells [5]
  Weight of tumor: 0.35 ± 0.15 g
  Inhibition ratio (%): 75%

## CC(=O)CC(=O)OC(COCCCCCCCCCCCCC1CCCCC1)COCCOCC[N+](C)(C)C (stereo not shown) [Example 26, 2-[2-[2-Acetoacetyloxy-3-(12-cyclohexyl)dodecyloxypropyloxy]ethoxy]ethyltrimethylammonium chloride]
Sarcoma 180 cells [8]
  Inhibition ratio (1-T/C) (%): 60%
Sarcoma 180 cells [7]; [11]
  responders at 0.33 mg: 0%
Sarcoma 180 cells [7]; [12]
  response vs control in vivo at 0.33 mg: 295%

## CCCCCCCCCCCCCCCCCCOCC(COCCOCC[N+](C)(C)C)OCC(C)=O (stereo not shown) [Example 29, 2-[2-[3-(Octadecyloxy)-2-(2-oxopropyloxy)propyloxy]ethoxy]ethyltrimethylammonium chloride]
Sarcoma 180 cells [7]; [11]
  responders at 0.33 mg: 60%
Sarcoma 180 cells [7]; [12]
  response vs control in vivo at 0.33 mg: 220%

## CCCCCCCCCCCCCCCCCCOCC(COCCOCC[N+](C)(C)C)OC(=S)NC (stereo not shown) [Example 42, 2-[2-[2-(Methylthiocarbamoyloxy)-3-(octadecyloxy)propyloxy]ethoxy]ethyltrimethylammonium chloride]
Sarcoma 180 cells [7]; [11]
  responders at 0.33 mg: 0%
Sarcoma 180 cells [7]; [12]
  response vs control in vivo at 0.33 mg: 340%

## CNC(=S)OC(COCCCCCCCCCCCCC1CCCCC1)COCCOCC[N+](C)(C)C (stereo not shown) [Example 43, 2-[2-[3-(12-Cyclohexyl)dodecyloxy-2-N-methylthiocarbamoyloxypropyloxy]ethoxy]ethyltrimethylammonium chloride]
Sarcoma 180 cells [7]; [11]
  responders at 0.33 mg: 20%
Sarcoma 180 cells [7]; [12]
  response vs control in vivo at 0.33 mg: 323%

## CCCCCCCCCCCCCCCCCCOCC(COCCOCC[N+](C)(C)C)OCC1CO1 (stereo not shown) [Example 47, 2-[2-[2-(2,3-Epoxypropyloxy)-3-(octadecyloxy)propyloxy]ethoxy]ethyltrimethylammonium chloride]
Sarcoma 180 cells [7]; [11]
  responders at 0.33 mg: 20%
Sarcoma 180 cells [7]; [12]
  response vs control in vivo at 0.33 mg: 237%

## COC(COCCCCCCCCCCCC(F)(F)C(F)(F)C(F)(F)C(F)(F)C(F)(F)C(F)(F)C(F)(F)C(F)(F)F)COCCOCC[N+](C)(C)C (stereo not shown) [Example 51, 2-[2-[2-Methoxy-3-(12,12,13,13,14,14,15,15,16,16, 17,17,18,18,19,19,19-heptadecafluorononadecyloxy)propyloxy)ethoxy]ethyltrimethylammonium chloride]
Sarcoma 180 cells [7]; Mus musculus
  response vs control in vivo at 0.33 mg: 295%
Sarcoma 180 cells [7]; Mus musculus, read-out: No. of survivors/No. of mice tested
  responders at 0.33 mg: 0%

## COC(COCCOCC[N+](C)(C)C)COCCC(C)CCCC(C)CCCC(C)CCCC(C)C (stereo not shown) [Example 59, 2-[2-[2-Methoxy-3-(3,7,11,15-tetramethylhexadecyloxy)propyloxy]ethoxy]ethyltrimethylammonium chloride]
Sarcoma 180 cells [7]; [11]
  responders at 0.33 mg: 0%
Sarcoma 180 cells [7]; [12]
  response vs control in vivo at 0.33 mg: 224%

## C[N+](C)(C)CCOCCOCC(COCCCCCCCCCCCCC1CCCCC1)OCC(=O)[O-] (stereo not shown) [Example 66, 3-(12-Cyclohexyldodecyloxy)methyl-10-trimethylammonio-2,5,8-trioxadecane carboxylate]
Sarcoma 180 cells [7]; [11]
  responders at 0.33 mg: 0%
Sarcoma 180 cells [7]; [12]
  response vs control in vivo at 0.33 mg: 235%

## lysolecithin
macrophages
  macrophage activation: cannot activate macrophages
